Data reported in article PMC10253817, “Design, Pharmacological Characterization, and Molecular Docking of Minimalist Peptidomimetic Antagonists of α4β1 Integrin” (International Journal of Molecular Sciences, 2023).
One block for each compound: values may come before it. *1 amine or outer side, *2 acyl side, *3 side chain or, on linkers, in order; H or OH if unused. Where a SMILES comes first, the peptide text is derived from it. [ ]: non-standard residue; d: D form. The star is where a group is joined. X1 = O=C(Cc1ccc(N[*:1])cc1)[*:2]; NH(2-Me-phenyl) = Cc1ccccc1N*; CO = O=C([*:1])[*:2]

Experiments:
[1] = system: antigen-induced airway hyper-responsiveness; design: method as in PMID 10934094; settings: allergic sheep; cited from earlier work
[2] = design: method as in PMID 17523052, PMID 11682211; settings: plasma; heparinized blood; homogenates of rat liver, lungs, and intestines; cited from earlier work
[3] = design: method as in PMID 12086484; settings: cited from earlier work
α4β1 integrin [4] = target: T1, α4β1 integrin (Homo sapiens, UniProt P05556+P13612); experiment: α4β1 integrin-mediated Jurkat E6.1 cell adhesion to FN; format: cell-based; settings: Jurkat E6.1 cell adhesion to FN (10 μg/mL); antag. = reduced cell adhesion; mean ± SD
T1 construct: Jurkat E6.1 cell line, which endogenously expresses α4β1 integrin; host or cells: Jurkat E6.1
Experimental: To investigate the ability of the new peptides to modulate integrin-mediated cell adhesion, we employed cell adhesion assays using a Jurkat E6.1 cell line, which endogenously expresses α4β1 integrin and the natural ligand FN. […] On the contrary, ligands able to increase cell adhesion are defined as agonists.
(§1) The assays were performed as previously described. Briefly, regarding adhesion assays on Jurkat E6.1 or HL-60 cells, black 96-well plates (Corning Costar) were coated overnight at 4 °C with FN or Fg (10 μg/mL) or VCAM-1 (2 μg/mL) in order to investigate α4β1 integrin-mediated cell adhesion. To avoid any kind of unspecific binding, plates were incubated with 100 μL/well of blocking solution (1% BSA in HBSS) for 30 min at 37 °C. Cells were counted, stained with the CellTracker green CMFDA (12.5 μM, 30 min at 37 °C, Life Technologies Italia, Milan, Italy) and after three washes, were preincubated with increasing concentrations of new compounds (10^−10–10^−4 M) or with the vehicle (methanol) for 30 min at 37 °C.
(§2) Then, cells were plated (500,000/well) on coated wells and incubated for 30 min at 37 °C. Afterwards nonadherent cells were removed via washing with a blocking solution, and the remaining adhered cells were lysed with 0.5% Triton X-100 in PBS (30 min at 4 °C). Green fluorescence was measured (Ex485 nm/Em535 nm) using an EnSpire Multimode Plate Reader (PerkinElmer, Waltham, MA, USA).
(§3) In both types of adhesion assay, the number of adherent cells was determined via comparison with a standard curve made in the same plate. Experiments were carried out in quadruplicate and repeated at least three times. Data analysis and EC50 or IC50 values were calculated using GraphPad Prism 9.5.1 (GraphPad Software, San Diego, CA, USA).

α5β1 integrin = target: T2, α5β1 integrin (Homo sapiens, UniProt P05556+P08648); experiment: α5β1 integrin-mediated K562 cell adhesion to FN; format: cell-based; settings: K562 cell adhesion to FN (10 μg/mL)
T2 construct: K562 cells, mainly expressing α5β1, which shares a β1 subunit with the heterodimer α4β1; host or cells: K562 (PMA-treated)
Experimental: (§4) To this purpose, the ability of the best peptidomimetics to modulate cell adhesion mediated by integrins other than α4β1 was evaluated in HL60 cells, mainly expressing the leukocyte integrin αMβ2, and on K562 cells, mainly expressing α5β1, which shares a β1 subunit with the heterodimer α4β1. […] In contrast, 13 was a moderate promoter of cell adhesion mediated by αMβ2 integrin, behaving as an agonist. Regarding α5β1 integrin, none of the peptidomimetics employed were able to modulate K562 cell adhesion, thus being shown to be completely ineffective toward α5β1 integrin. The reference compound DS-70 was ineffective toward both αMβ2 and α5β1 integrins under the same experimental conditions (Table 3).
For adhesion assays mediated by α5β1 integrin, K562 cells were pre-treated with PMA (64.85 nM, Merck Life Science, Milan, Italy) for 48 h to enhance α5β1 integrin expression. 96-well plates were coated via passive adsorption with FN (10 μg/mL) overnight at 4 °C; then, the following day, plates were blocked by adding 100 μL/well of a blocking solution (1% BSA in PBS) and incubated for 1 h at 37 °C. K562 cells were counted and preincubated with various concentrations (10^−10–10^−4 M) of the peptides or with the vehicle for 30 min at RT. Then, K562 cells were plated (50,000 cells/well) and incubated at RT for 1 h. The wells were then washed three times with 1% BSA in PBS, and 50 μL of hexosaminidase substrate was added and incubated at RT for 1 h. After the addition of 100 μL of stopping solution (50 mM glycine and 5 mM EDTA, pH 10.4), plates were read at 405 nm in an EnSpire Multimode Plate Reader.
as §3
Cell culture. Jurkat E6.1 (expressing both α4β1 and αLβ2 integrin), K562 (expressing α5β1 integrin) and HL60 (expressing α Mβ2 integrin) cell lines were purchased from ATCC (Rockville, MD, USA); these cells were routinely cultured in RPMI-1640 (Life Technologies) supplemented with 1% glutamine and 10% fetal bovine serum (FBS). Cells were grown at 37 °C under 5% CO 2 humidified atmosphere. 40 h before the adhesion assays, K562 and HL60 cells were treated with 25 nM or 40 nM phorbol 12 -myristate 13-acetate (PMA; Sigma-Aldrich), respectively, to induced cell differentiation and to increased α5β1 or αMβ2 integrin expression on cell surface (Baiula et al., 2016).
Cell adhesion assays . Concentration-response curves, obtained from cell adhesion assays performed in […]
Figure S1. […]

α4β1 integrin [5] = target: T1, α4β1 integrin; experiment: LDV-FITC competitive binding on intact Jurkat E6.1 cells
Experimental: The assays were performed as previously described with the following modifications. Jurkat E6.1 cells were resuspended (50,000 cells/sample) in 0.1% BSA in a HEPES buffer (NaCl 110 mM; KCl 10 mM; Glucose 10 mM; MgCl2 1 mM; CaCl2 1.5 mM; HEPES 30 mM; pH 7.4) and pre-incubated with different concentrations (10^−11–10^−5 M) of compounds for 20–30 min at RT. Then, LDV-FITC (5 µM) was added to the cells, and they were incubated in the dark for an additional 30 min at RT. At the end of the incubation with LDV-FITC, cells were washed with 0.1% BSA in a HEPES buffer. The FITC fluorescence intensity was measured using an EnSpire Multimode Plate Reader (PerkinElmer, Waltham, MA, USA). The data were plotted as LDV-FITC specific bindings versus the concentration of the competitor, and the data were fitted to a one-site competition equation; the equilibrium dissociation constant Ki was calculated from the IC50 using the Cheng–Prusoff equation.

[6] = design: method as in PMID 30051467, PMID 33584300; settings: cited from earlier work
α4β1 integrin [7] = target: T1, α4β1 integrin; experiment: α4β1 integrin-mediated Jurkat cell adhesion to VCAM-1; format: cell-based; settings: Jurkat cell adhesion to VCAM-1 (2 μg/mL); antag. = reduced cell adhesion; mean ± SD
Experimental: as §4, §1, §2, §3

αMβ2 integrin = target: T3, αMβ2 integrin (Homo sapiens, UniProt P05107+P11215); experiment: αMβ2 integrin-mediated HL60 cell adhesion to Fg; format: cell-based; settings: HL60 cell adhesion to Fg (10 μg/mL); antagonists; mean ± SD
T3 construct: HL60 cells, mainly expressing the leukocyte integrin αMβ2; host or cells: HL60 (PMA-treated)
Experimental: as §4, §1, §2, §3
Cell culture. Jurkat E6.1 (expressing both α4β1 and αLβ2 integrin), K562 (expressing α5β1 integrin) and HL60 (expressing α Mβ2 integrin) cell lines were purchased from ATCC (Rockville, MD, USA); these cells were routinely cultured in RPMI-1640 (Life Technologies) supplemented with 1% glutamine and 10% fetal bovine serum (FBS). Cells were grown at 37 °C under 5% CO 2 humidified atmosphere. […]

α4β1 integrin [8] = target: T1, α4β1 integrin; experiment: HUTS-21 monoclonal antibody binding (α4β1 integrin conformation), flow cytometry; format: cell-based; settings: Jurkat E6.1 cells; compounds 1–100 nM; FN 10 µg/mL; versus vehicle
Text: Integrin functions are regulated by a number of conformational changes in the protein itself. […] Conformational changes can be evaluated by using conformationally sensitive antibodies which specifically recognize epitopes exposed only in a defined structural conformation. To better depict peptidomimetics–α4β1 integrin interactions, we employed PE-conjugated HUTS-21 mAb that recognizes an epitope mapped to the hybrid domain of the β1 subunit.
Conversely, antagonists 3, 8, and 13, although binding to α4β1 integrin as previously shown, were not able to induce any conformational rearrangement, showing very low binding of HUTS-21 mAb.
Flow cytometry analysis was performed as previously described, with the following modifications. Jurkat E6.1 cells were resuspended in 1% BSA in HBSS (50,000 cells/sample); then, FN (10 μg/mL) and two concentrations of the best peptidomimetics (100–1 nM) were added to the cells for 30 min. Thereafter, phycoerythrin (PE)-conjugated, conformational-sensitive HUTS-21 mAb (PE mouse anti-human CD29 antibody, Becton Dickinson Italia, Milan, Italy) (20 μL/sample) was added for 45 min at room temperature; after two washes, Jurkat E6.1 cells were suspended in PBS, and 10,000 cells/sample were acquired in a Guava®EasyCyte Flow Cytometer. The data are presented as the mean fluorescence intensity (MFI). Data were normalized with the relative fluorescence for nonspecific binding evaluated by exposing the cells to an isotype control mAb set to 0.

T1 sequence (P13612 34-1032): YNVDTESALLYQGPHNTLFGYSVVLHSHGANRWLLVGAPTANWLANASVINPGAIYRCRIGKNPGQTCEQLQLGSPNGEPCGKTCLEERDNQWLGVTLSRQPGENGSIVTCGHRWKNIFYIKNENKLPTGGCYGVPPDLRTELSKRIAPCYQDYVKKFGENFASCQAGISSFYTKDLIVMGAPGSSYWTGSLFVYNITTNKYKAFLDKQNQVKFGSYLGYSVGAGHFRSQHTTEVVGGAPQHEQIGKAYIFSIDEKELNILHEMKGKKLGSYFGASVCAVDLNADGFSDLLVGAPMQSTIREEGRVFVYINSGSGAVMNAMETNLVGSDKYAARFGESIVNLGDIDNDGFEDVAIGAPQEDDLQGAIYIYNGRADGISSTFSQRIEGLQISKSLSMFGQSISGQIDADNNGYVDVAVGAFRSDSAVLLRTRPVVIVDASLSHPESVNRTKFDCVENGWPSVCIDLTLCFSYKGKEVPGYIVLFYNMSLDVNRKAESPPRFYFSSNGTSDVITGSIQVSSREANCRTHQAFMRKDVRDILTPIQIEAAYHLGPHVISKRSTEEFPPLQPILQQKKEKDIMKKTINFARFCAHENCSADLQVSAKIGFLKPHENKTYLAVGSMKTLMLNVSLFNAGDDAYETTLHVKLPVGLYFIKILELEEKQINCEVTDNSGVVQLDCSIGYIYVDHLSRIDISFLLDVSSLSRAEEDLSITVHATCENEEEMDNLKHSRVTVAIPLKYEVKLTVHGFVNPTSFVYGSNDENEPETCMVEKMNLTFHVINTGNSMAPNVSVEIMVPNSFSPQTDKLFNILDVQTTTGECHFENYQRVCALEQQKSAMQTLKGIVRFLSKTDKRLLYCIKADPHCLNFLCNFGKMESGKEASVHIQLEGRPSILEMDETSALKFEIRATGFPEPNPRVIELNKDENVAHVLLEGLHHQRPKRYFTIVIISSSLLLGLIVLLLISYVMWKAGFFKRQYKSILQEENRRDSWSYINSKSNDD
T1 sequence (P05556 21-798): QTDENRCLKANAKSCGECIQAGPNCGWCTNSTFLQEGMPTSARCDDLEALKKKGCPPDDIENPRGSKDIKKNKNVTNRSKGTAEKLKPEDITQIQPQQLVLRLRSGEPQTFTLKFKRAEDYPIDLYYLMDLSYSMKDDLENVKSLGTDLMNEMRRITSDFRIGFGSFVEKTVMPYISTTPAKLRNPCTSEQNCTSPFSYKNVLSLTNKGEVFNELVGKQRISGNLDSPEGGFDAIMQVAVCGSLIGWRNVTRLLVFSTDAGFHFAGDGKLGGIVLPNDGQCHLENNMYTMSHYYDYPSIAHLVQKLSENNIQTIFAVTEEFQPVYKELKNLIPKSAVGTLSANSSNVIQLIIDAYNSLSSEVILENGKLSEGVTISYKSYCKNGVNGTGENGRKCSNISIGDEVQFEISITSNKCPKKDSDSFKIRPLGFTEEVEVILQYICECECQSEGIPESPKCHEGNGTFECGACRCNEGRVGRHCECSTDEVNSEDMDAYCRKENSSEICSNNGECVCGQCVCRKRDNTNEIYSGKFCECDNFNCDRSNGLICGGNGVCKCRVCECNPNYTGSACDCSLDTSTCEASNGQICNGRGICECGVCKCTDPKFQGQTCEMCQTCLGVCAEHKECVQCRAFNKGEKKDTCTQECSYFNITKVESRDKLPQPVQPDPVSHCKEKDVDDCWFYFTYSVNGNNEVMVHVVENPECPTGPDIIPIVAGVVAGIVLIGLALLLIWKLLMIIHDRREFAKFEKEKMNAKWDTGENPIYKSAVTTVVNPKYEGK
T2 sequence (P08648 42-894 limits assumed): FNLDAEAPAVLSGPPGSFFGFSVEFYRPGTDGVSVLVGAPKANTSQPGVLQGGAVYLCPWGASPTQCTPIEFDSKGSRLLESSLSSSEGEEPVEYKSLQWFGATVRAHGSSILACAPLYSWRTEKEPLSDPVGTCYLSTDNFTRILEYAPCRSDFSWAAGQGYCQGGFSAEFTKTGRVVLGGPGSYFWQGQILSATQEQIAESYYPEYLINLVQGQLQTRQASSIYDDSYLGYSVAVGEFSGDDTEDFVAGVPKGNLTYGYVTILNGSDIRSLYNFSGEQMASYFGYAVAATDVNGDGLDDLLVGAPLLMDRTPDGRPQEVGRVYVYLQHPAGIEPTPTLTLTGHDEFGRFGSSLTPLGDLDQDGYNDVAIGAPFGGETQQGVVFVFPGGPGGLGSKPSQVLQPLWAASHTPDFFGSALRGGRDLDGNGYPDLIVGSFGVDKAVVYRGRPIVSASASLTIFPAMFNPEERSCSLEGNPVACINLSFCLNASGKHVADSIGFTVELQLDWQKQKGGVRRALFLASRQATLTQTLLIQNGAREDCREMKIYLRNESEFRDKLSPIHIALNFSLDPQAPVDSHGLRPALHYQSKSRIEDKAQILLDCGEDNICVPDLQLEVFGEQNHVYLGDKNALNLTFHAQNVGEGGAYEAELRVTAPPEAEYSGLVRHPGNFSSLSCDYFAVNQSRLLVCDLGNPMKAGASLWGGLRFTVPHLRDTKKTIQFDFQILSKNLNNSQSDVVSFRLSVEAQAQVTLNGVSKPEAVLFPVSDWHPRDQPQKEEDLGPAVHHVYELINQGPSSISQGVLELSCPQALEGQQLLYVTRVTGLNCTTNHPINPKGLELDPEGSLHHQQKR
T2 sequence (P08648 895-1049 partner limits assumed): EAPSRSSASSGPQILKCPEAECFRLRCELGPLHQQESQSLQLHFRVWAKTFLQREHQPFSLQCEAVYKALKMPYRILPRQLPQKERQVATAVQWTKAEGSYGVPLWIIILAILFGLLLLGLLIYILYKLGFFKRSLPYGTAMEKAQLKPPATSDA
T2 sequence (P05556 21-798): as the sequence (P05556 21-798) above
T3 sequence (P05107 23-769, other chains not shown): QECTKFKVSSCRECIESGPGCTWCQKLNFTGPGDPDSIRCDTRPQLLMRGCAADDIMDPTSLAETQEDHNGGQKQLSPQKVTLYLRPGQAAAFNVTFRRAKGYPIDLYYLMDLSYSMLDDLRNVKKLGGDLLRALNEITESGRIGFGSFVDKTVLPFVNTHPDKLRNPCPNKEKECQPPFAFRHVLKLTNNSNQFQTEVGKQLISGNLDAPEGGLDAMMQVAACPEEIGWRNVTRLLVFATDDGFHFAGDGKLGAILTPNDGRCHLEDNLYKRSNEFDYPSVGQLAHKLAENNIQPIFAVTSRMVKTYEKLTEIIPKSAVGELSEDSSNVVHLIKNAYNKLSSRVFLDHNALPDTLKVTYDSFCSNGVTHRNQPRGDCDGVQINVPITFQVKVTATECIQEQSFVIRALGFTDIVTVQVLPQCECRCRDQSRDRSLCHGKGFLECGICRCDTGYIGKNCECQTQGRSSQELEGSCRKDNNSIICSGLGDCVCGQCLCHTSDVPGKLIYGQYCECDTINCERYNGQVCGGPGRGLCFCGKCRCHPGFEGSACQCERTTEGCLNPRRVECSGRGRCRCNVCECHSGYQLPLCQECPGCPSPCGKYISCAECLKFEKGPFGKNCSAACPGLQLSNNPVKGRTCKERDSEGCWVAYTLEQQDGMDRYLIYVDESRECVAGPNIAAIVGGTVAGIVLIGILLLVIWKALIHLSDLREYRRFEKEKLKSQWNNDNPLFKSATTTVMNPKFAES

Compound: Cc1ccccc1NC(=O)Nc1ccc(CC(=O)N[C@@H](CC(C)C)C(=O)N[C@@H](CC(=O)O)C(=O)N[C@H](C(=O)N2CCC[C@H]2C(=O)O)C(C)C)cc1 [BIO1211, MPUPA-Leu-Asp-Val-ProOH] ({NH(2-Me-phenyl)-CO}-[X1]LDVP-OH)
antigen-induced airway hyper-responsiveness [1]: capable of inhibiting
stability in a biological environment [2]: scarcely stable
clearance in vivo [3]: rapid clearance

Compound: Cc1ccccc1NC(=O)Nc1ccc(CC(=O)NC[C@H](C)C(=O)NCC(=O)O)cc1 [compound 1]
receptor affinity (in words) (α4β1 integrin [5]; α4β1 integrin): complete lack of receptor affinity

Compound: Cc1ccccc1NC(=O)Nc1ccc(CNC(=O)C[C@H](C)NC(=O)CC(=O)O)cc1 [compound 14]
IC50 (α4β1 integrin [4]): > 5 µM

Compound: CCCNC(=O)[C@H](CC(=O)NCc1ccc(NC(=O)Nc2ccccc2C)cc1)NC(=O)CC(=O)O [compound 15]
IC50 (α4β1 integrin [4]): > 5 µM

Compound: CCCNC(=O)[C@@H](CC(=O)NCc1ccc(NC(=O)Nc2ccccc2C)cc1)NC(=O)CC(=O)O [compound 16]
IC50 (α4β1 integrin [4]): > 5 µM

Compound: fibronectin [FN]
binding of HUTS-21 mAb (MFI) (α4β1 integrin [8]): increased binding of the HUTS-21 mAb

More lines, main results first:

IC50 (α4β1 integrin [4]): 0.051 µM
Compound: Cc1ccccc1NC(=O)Nc1ccc(CNC(=O)[C@H]2CCN(C(=O)CC(=O)O)C2)cc1 [DS-23, reference compound]

IC50 (α4β1 integrin [4]): 0.0043 µM
IC50 (α5β1 integrin): > 5 µM
Ki (α4β1 integrin [5]; intact Jurkat E6.1 cells vs. LDV-FITC, mean ± SD): 0.00094 ± 0.00032 µM
IC50 (α4β1 integrin [7]): 0.00504 µM
IC50 (αMβ2 integrin): > 5 µM
Compound: Cc1ccccc1NC(=O)Nc1ccc(CC(=O)N2CC[C@H](C(=O)NCC(=O)O)C2)cc1 [DS-70, MPUPA-β^2Pro-Gly, reference compound]
stability in mouse serum [6]: noteworthy stability

IC50 (α4β1 integrin [4]): > 5 µM
Compound: Cc1ccccc1NC(=O)Nc1ccc(CNC(=O)[C@H](C)CNC(=O)CC(=O)O)cc1 [compound 9]

IC50 (α4β1 integrin [4]): > 5 µM
Compound: Cc1ccccc1NC(=O)Nc1ccc(CNC(=O)[C@@H](C)CNC(=O)CC(=O)O)cc1 [compound 10]

IC50 (α4β1 integrin [4]): > 5 µM
Compound: CC(=O)N[C@@H](CNC(=O)CC(=O)O)C(=O)NCc1ccc(NC(=O)Nc2ccccc2C)cc1 [compound 11]

IC50 (α4β1 integrin [4]): > 5 µM
Compound: CC(=O)N[C@H](CNC(=O)CC(=O)O)C(=O)NCc1ccc(NC(=O)Nc2ccccc2C)cc1 [compound 12]
